# Test results taken from patent US10988459B2 (priority 2015, dated 2021).
# Several values for one entry are separate records, joined by “and”; a condition that tells them apart may be missing. Equal values may be shown once.
# Molecular target: human RIP1 kinase domain (2-375) (Homo sapiens (Human), UniProt Q13546)
# Assay: biochemical
# Format: biochemical
# Conditions: Table 5; apparent Ki (Morrison tight-binding fit); 50 nM RIP1 kinase domain, 50 uM ATP, 2 hours incubation; read-out: Ki
# Summary of the method: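 Ki^app comes from Morrison tight-binding fits of fractional activity versus compound concentration. Activity was read as ADP production, via tracer displacement lowering fluorescence polarization (633 nm laser). Conditions: 2 h, 50 nM insect-cell-expressed enzyme, 50 uM ATP, 30 mM MgCl2, 1 mM DTT, 0.5% DMSO, pH 7.5 Hepes.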
# human RIP1 kinase domain (2-375), sequence (Q13546 2-375): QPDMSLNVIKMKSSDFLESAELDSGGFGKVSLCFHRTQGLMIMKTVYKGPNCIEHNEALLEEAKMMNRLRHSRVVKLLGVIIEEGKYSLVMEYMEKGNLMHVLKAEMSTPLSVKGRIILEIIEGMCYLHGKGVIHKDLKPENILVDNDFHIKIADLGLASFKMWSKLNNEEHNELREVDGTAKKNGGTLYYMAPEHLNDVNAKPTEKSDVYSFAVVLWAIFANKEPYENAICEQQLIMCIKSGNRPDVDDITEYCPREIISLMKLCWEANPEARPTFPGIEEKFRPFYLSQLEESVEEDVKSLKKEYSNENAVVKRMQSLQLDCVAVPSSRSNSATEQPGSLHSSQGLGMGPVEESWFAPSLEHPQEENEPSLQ
row,Ki [nM],SMILES
1,74,"CN1C(=O)[C@@H](NC(=O)c2nc3n(n2)CCN[C@@H]3c2ccccc2)COc2ccccc21 (single isomer, unassigned) [Example 785]"

# Same assay, conditions: human RIP1 kinase domain (2-375), 50 uM ATP, 2 hours incubation, Transcreener ADP assay; read-out: RIP1 Ki
row,Ki [nM],SMILES
1,2300,"CN1C(=O)[C@@H](NC(=O)c2ccn(Cc3ccc(F)c(F)c3)n2)COc2c1cnn2C [Example 182, (S)-1-(3,4-difluorobenzyl)-N-(1,4-dimethyl-5-oxo-4,5,6,7-tetrahydro-1H-pyrazolo[3,4-b][1,4]oxazepin-6-yl)-1H-pyrazole-3-carboxamide]"
2,57.6,"CCn1ncc2cnc(C(=O)N[C@H]3COc4ccccc4N(C)C3=O)cc21 [Example 202, (S)-1-ethyl-N-(5-methyl-4-oxo-2,3,4,5-tetrahydrobenzo[b][1,4]oxazepin-3-yl)-1H-pyrazolo[4,3-c]pyridine-6-carboxamide]"
3,104,"O=C(N[C@H]1COc2cc(F)cc(F)c2NC1=O)c1n[nH]c2c1C[C@H](C(F)(F)F)CC2 (single isomer, unassigned) [Example 87]"
4,76.8,"CN1C(=O)[C@@H](NC(=O)c2nc3n(n2)C(c2ccccc2)CC3)CCn2nccc21 (stereo partly drawn) [Example 124, N—((S)-4-methyl-5-oxo-5,6,7,8-tetrahydro-4H-pyrazolo[1,5-a][1,3]diazepin-6-yl)-5-phenyl-6,7-dihydro-5H-pyrrolo[1,2-b][1,2,4]triazole-2-carboxamide]"

# Same assay, conditions: human RIP1 kinase domain (2-375), Transcreener ADP assay, 50 uM ATP, 2 hours incubation; read-out: RIP1 Ki
row,Ki [nM],SMILES
1,5,"CC(C)c1ccc2[nH]nc(C(=O)N[C@H]3COc4ccccc4N(C)C3=O)c2c1 [Example 228, (S)-5-isopropyl-N-(5-methyl-4-oxo-2,3,4,5-tetrahydrobenzo[b][1,4]oxazepin-3-yl)-1H-indazole-3-carboxamide]"
2,50.4,"Cc1nn2c(c1C)N(C)C(=O)[C@@H](NC(=O)c1nnc(Cc3ccccc3)[nH]1)CC2 [Example 300, (S)-5-benzyl-N-(2,3,4-trimethyl-5-oxo-5,6,7,8-tetrahydro-4H-pyrazolo[1,5-a][1,3]diazepin-6-yl)-4H-1,2,4-triazole-3-carboxamide]"
3,59.4,"CN1C(=O)[C@@H](NC(=O)c2nnc(Cc3ccccc3)o2)CCn2nc(C3CC3)cc21 [Example 282, (S)-5-benzyl-N-(2-cyclopropyl-4-methyl-5-oxo-5,6,7,8-tetrahydro-4H-pyrazolo[1,5-a][1,3]diazepin-6-yl)-1,3,4-oxadiazole-2-carboxamide]"
4,1900,"CN1C(=O)C(NC(=O)c2ncn(CC3CC3)n2)CCn2nc(C3CC3)cc21 (stereo not shown) [Example 260, N-(2-cyclopropyl-4-methyl-5-oxo-5,6,7,8-tetrahydro-4H-pyrazolo[1,5-a][1,3]diazepin-6-yl)-1-(cyclopropylmethyl)-1H-1,2,4-triazole-3-carboxamide]"
5,511,"COCC1(C)OCc2cnc(C(=O)N[C@H]3COc4ccccc4N(C)C3=O)cc21 (stereo partly drawn) [Example 231, 1-(methoxymethyl)-1-methyl-N—((S)-5-methyl-4-oxo-2,3,4,5-tetrahydrobenzo[b][1,4]oxazepin-3-yl)-1,3-dihydrofuro[3,4-c]pyridine-6-carboxamide]"

row,SMILES,Ki [nM]
1,"CC(C)c1cnc2[nH]nc(C(=O)N[C@H]3COc4ccccc4N(C)C3=O)c2c1 [Example 238, (S)-5-isopropyl-N-(5-methyl-4-oxo-2,3,4,5-tetrahydrobenzo[b][1,4]oxazepin-3-yl)-1H-pyrazolo[3,4-b]pyridine-3-carboxamide]",54.7
2,"Cc1cc2n(n1)CC[C@H](NC(=O)c1nnc(Cc3ccccc3)[nH]1)C(=O)N2C [Example 240, (S)-5-benzyl-N-(2,4-dimethyl-5-oxo-5,6,7,8-tetrahydro-4H-pyrazolo[1,5-a][1,3]diazepin-6-yl)-4H-1,2,4-triazole-3-carboxamide]",84.6

# Same assay, conditions: tight-binding apparent inhibition constant; human RIP1 kinase domain (2-375) 50 nM, 50 uM ATP, 2 hours; read-out: Ki
row,Ki,SMILES
1,9300 nM,"Cc1cc2n(n1)CC[C@H](NC(=O)c1nc3n(n1)CCC31CCOC1)C(=O)N2C (stereo partly drawn) [Example 646, N-[(6S)-2,4-dimethyl-5-oxo-7,8-dihydro-6H-pyrazolo[1,5-a][1,3]diazepin-6-yl]spiro[5,6-dihydropyrrolo[1,2-b][1,2,4]triazole-7,3′-tetrahydrofuran]-2-carboxamide]"
2,25 nM,"Cc1cc2n(n1)CC[C@H](NC(=O)c1ncn(Cc3ccccc3C(F)(F)F)n1)C(=O)N2C [Example 584, N-(6S)-2,4-dimethyl-5-oxo-7,8-dihydro-6H-pyrazolo[1,5-a][1,3]diazepin-6-yl-1-[[2-(trifluoromethyl)phenyl]methyl]-1,2,4-triazole-3-carboxamide]"
3,1180 nM,"CC[C@]1(C)OCc2cnc(C(=O)N[C@H]3CCn4nc(C)cc4N(C)C3=O)nc21 (racemic) [Example 690, rac-(7S)-7-ethyl-7-methyl-N-[rac-(6S)-2,4-dimethyl-5-oxo-7,8-dihydro-6H-pyrazolo [1,5-a][1,3]diapepin-6-yl]-5H-furo[3,4-d]pyrimidine-2-carboxamide]"
4,115 nM,"CN1C(=O)[C@@H](NC(=O)c2ncn(Cc3ccccc3)n2)CCn2nc(CN3CCOCC3)cc21 (single isomer, unassigned) [Example 449]"
5,140 nM,"Cc1cc2n(n1)CC[C@H](NC(=O)c1ncn(CC3(C)CCC3)n1)C(=O)N2C [Example 560, 1-[(1-methylcyclobutyl)methyl]-N-(6S)-2,4-dimethyl-5-oxo-7,8-dihydro-6H-pyrazolo[1,5-a][1,3]diazepin-6-yl-1,2,4-triazole-3-carboxamide]"
6,700 nM,"Cc1cc2n(n1)CC[C@H](NC(=O)c1ncn(Cc3ccccc3C#N)n1)C(=O)N2C [Example 590, 1-[(2-cyanophenyl)methyl]-N-(6S)-2,4-dimethyl-5-oxo-7,8-dihydro-6H-pyrazolo[1,5-a][1, 3]diazepin-6-yl-1,2,4-triazole-3-carboxamide]"
7,12.8 nM,"CN1C(=O)[C@@H](NC(=O)c2ncn(Cc3ccc(F)cc3F)n2)CCn2nccc21 (racemic) [Example 340, 1-[(2,4-difluorophenyl)methyl]-N-[rac-(6S)-4-methyl-5-oxo-7,8-dihydro-6H-pyrazolo[1,5-a][1,3]diazepin-6-yl]-1,2,4-triazole-3-carboxamide]"
8,52.1 nM,"CCC1CCc2nc(C(=O)N[C@H]3COc4ccccc4N(C)C3=O)nn21 (stereo partly drawn) [Example 355, 5-ethyl-N-[(3S)-5-methyl-4-oxo-2,3-dihydro-1,5-benzoxazepin-3-yl]-6,7-dihydro-5H-pyrrolo[1,2-b][1,2,4]triazole-2-carboxamide]"
9,71 nM,"Cc1cc2n(n1)CC[C@H](NC(=O)c1ncc3cnn(-c4c(F)cccc4F)c3n1)C(=O)N2C [Example 609, 1-(2,6-difluorophenyl)-N-[(6S)-2,4-dimethyl-5-oxo-7,8-dihydro-6H-pyrazolo[1,5-a][1,3]diazepin-6-yl]pyrazolo[3,4-d]pyrimidine-6-carboxamide]"
10,511 nM,"CN1C(=O)[C@@H](NC(=O)c2nc3n(n2)C(c2nccn2C)CC3)COc2ccccc21 (stereo partly drawn) [Example 361, 5-(1-methylimidazol-2-yl)-N-[(3S)-5-methyl-4-oxo-2,3-dihydro-1,5-benzoxazepin-3-yl]-6,7-dihydro-5H-pyrrolo[1,2-b][1,2,4]triazole-2-carboxamide]"
11,13 nM,"Cc1ccccc1Cn1cnc(C(=O)N[C@H]2CCn3nccc3N(C)C2=O)n1 [Example 588, 1-(o-tolylmethyl)-N-(6S)-4-methyl-5-oxo-7,8-dihydro-6H-pyrazolo[1,5-a][1,3]diazepin-6-yl-1,2,4-triazole-3-carboxamide]"
12,175 nM,"CC(C)C1CCc2nc(C(=O)N[C@H]3CCn4nccc4N(C)C3=O)nn21 (stereo partly drawn) [Example 346, 5-isopropyl-N-[(6S)-4-methyl-5-oxo-7,8-dihydro-6H-pyrazolo[1,5-a][1,3]diazepin-6-yl]-6,7-dihydro-5H-pyrrolo[1,2-b][1,2,4]triazole-2-carboxamide]"
13,173 nM,"CN1C(=O)[C@@H](NC(=O)c2nc3cccc(-c4ccoc4)n3n2)CCn2nccc21 [Example 389, (S)-5-(furan-3-yl)-N-(4-methyl-5-oxo-5,6,7,8-tetrahydro-4H-pyrazolo[1,5-a][1,3]diazepin-6-yl)-[1,2,4]triazolo[1,5-a]pyridine-2-carboxamide]"
14,160 nM,"Cc1cccnc1Cn1cnc(C(=O)N[C@H]2CCn3nccc3N(C)C2=O)n1 [Example 647, 1-[(3-methyl-2-pyridyl)methyl]-N-(6S)-4-methyl-5-oxo-7,8-dihydro-6H-pyrazolo[1,5-a][1,3]diazepin-6-yl-1,2,4-triazole-3-carboxamide]"
15,660 nM,"CN1C(=O)[C@@H](NC(=O)c2nc3n(n2)CCO[C@@H]3c2ccccc2)COc2ccccc21 [Example 517, (8R)-8-phenyl-N-[(3S)-5-methyl-4-oxo-2,3-dihydro-1,5-benzoxazepin-3-yl]-6,8-dihydro-5H-[1,2,4]triazolo[5,1-c][1,4]oxazine-2-carboxamide]"
16,7.6 nM and 43 nM,"CN1C(=O)[C@@H](NC(=O)c2ncn(Cc3ccccc3Cl)n2)CCn2nccc21 [Example 582, 1-[(2-chlorophenyl)methyl]-N-(6S)-4-methyl-5-oxo-7,8-dihydro-6H-pyrazolo[1,5-a][1,3]diazepin-6-yl-1,2,4-triazole-3-carboxamide]"
17,57 nM,"CN1C(=O)[C@@H](NC(=O)c2nc3n(n2)[C@H](c2ccccc2F)CC3)COc2ccccc21 [Example 467, (S)-5-(2-fluorophenyl)-N—((S)-5-methyl-4-oxo-2,3,4,5-tetrahydrobenzo[b][1,4]oxazepin-3-yl)-6,7-dihydro-5H-pyrrolo[1,2-b][1,2,4]triazole-2-carboxamide]"
18,450 nM,"CN1C(=O)[C@@H](NC(=O)c2nc3n(n2)CC[C@H]3c2ccccc2)COc2ccccc21 [Example 572, (7S)-7-phenyl-N-[(3S)-5-methyl-4-oxo-2,3-dihydro-1,5-benzoxazepin-3-yl]-6,7-dihydro-5H-pyrrolo[1,2-b][1,2,4]triazole-2-carboxamide]"
19,318 nM,"CN1C(=O)[C@@H](NC(=O)c2nc3n(n2)[C@@H](c2cnn(C)c2)CCC3)CCn2nccc21 (single isomer, unassigned) [Example 404]"
